Source: patent US20100267561A1, “HERBICIDAL PYRIDAZINONE DERIVATIVES” (priority 2007, published 2010)

Legend:
Format in all cases: in vivo
[1] = tested on: cocklebur (Xanthium strumarium); assay: Test B pre-/postemergence plant response; conditions: for Cocklebur plant response rating: 8 g ai/ha
Summary of the method: (§1)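 Seeds were sown and sprayed preemergence, while plants at 2 to 18 cm (1- to 4-leaf stage) got postemergence sprays. Compounds were formulated in a non-phytotoxic solvent mixture with surfactant. After 13 to 15 days in a greenhouse, injury was rated visually against untreated controls, 0 (no effect) to 100 (complete control).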

[2] = tested on: giant foxtail (Setaria faberii); assay: Test B pre-/postemergence plant response
Summary of the method: as §1

[3] = tested on: lambsquarters (Chenopodium album); assay: Test B pre-/postemergence plant response; conditions: for Lambsquarters plant response rating: postemergence, 0-100 scale; for Plant response rating, Lambsquarters: Postemergence
Summary of the method: as §1

[4] = tested on: blackgrass (Alopecurus myosuroides); assay: Test B pre-/postemergence plant response; conditions: for Blackgrass plant response rating: 8 g ai/ha
Summary of the method: as §1

[5] = tested on: goosegrass (Eleusine indica); assay: Test B pre-/postemergence plant response
Summary of the method: as §1

[6] = tested on: johnsongrass (Sorghum halepense); assay: Test B pre-/postemergence plant response
Summary of the method: as §1

[7] = tested on: yellow nutsedge (Cyperus esculentus); assay: Test B pre-/postemergence plant response
Summary of the method: as §1

[8] = tested on: catchweed bedstraw (Galium aparine); assay: Test B pre-/postemergence plant response; conditions: Preemergence; for Galium plant response rating: scale 0 to 100
Summary of the method: as §1

[9] = tested on: large crabgrass (Digitaria sanguinalis); assay: Test B pre-/postemergence plant response
Summary of the method: as §1

[10] = tested on: wheat (Triticum aestivum); assay: Test B pre-/postemergence plant response
Summary of the method: as §1

wild oat (Avena fatua) = assay: Test B pre-/postemergence plant response
Summary of the method: as §1

[11] = tested on: common ragweed (Ambrosia elation); assay: Test B pre-/postemergence plant response
Summary of the method: as §1

[12] = tested on: common (oilseed) sunflower (Helianthus annuus); assay: Test B pre-/postemergence plant response; conditions: Preemergence; for Sunflower plant response rating: scale 0 to 100
Summary of the method: as §1

[13] = tested on: winter barley (Hordeum vulgare); assay: Test B postemergence plant response; conditions: for Plant response rating, Barley: Postemergence, scale 0 to 100, 0 no effect, 100 complete control
Summary of the method: (§2)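 Following treatment of plants 2 to 18 cm high after emergence, pots were held under glass for 13 to 15 days; efficacy was then graded visually, 100 denoting complete control and a dash no test result.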

[14] = tested on: windgrass (Apera spica-venti); assay: Test B postemergence plant response; conditions: for Windgrass plant response rating: postemergence, 0-100 scale; for Plant response rating, Windgrass: Postemergence
Summary of the method: as §2

[15] = Postemergence, 16 g ai/ha, scale 0 to 100
[16] = Postemergence, 31 g ai/ha, scale 0 to 100
[17] = Postemergence, 62 g ai/ha, scale 0 to 100, 0 no effect, 100 complete control
[18] = Preemergence, 16 g ai/ha, scale 0 to 100 (0 no effect, 100 complete control)
[19] = Preemergence, 31 g ai/ha, scale 0 to 100 (0 no effect, 100 complete control)
[20] = Preemergence, 62 g ai/ha, 0 to 100 scale, 0 no effect, 100 complete control
[21] = 8 g ai/ha, postemergence, 0-100 scale
[22] = Preemergence, 8 g ai/ha, scale 0 to 100
[23] = Preemergence, 16 g ai/ha, scale 0 to 100
[24] = 62 g ai/ha, scale 0 to 100, 0 no effect, 100 complete control
[25] = 16 g ai/ha, postemergence, 0-100 scale
[26] = 31 g ai/ha, scale 0 to 100 (0 no effect, 100 complete control)
[27] = 62 g ai/ha, 0 to 100 scale, 0 no effect, 100 complete control

Cc1cc(-c2ccc(Cl)cc2)nn1-c1c(OC(=S)N(C)C)cnn(C)c1=O [Compound 69]
Cocklebur plant response rating ([1]; postemergence, 0-100 scale): 0
Plant response rating, Cocklebur [1, 15]: 0
Plant response rating, Cocklebur [1, 16]: 0
Plant response rating, Cocklebur [1, 17]: 0
Plant response rating, Cocklebur [1, 18]: 0
Plant response rating, Cocklebur [1, 19]: 0
Plant response rating, Cocklebur [1, 20]: 0
Cocklebur plant response rating ([1]; Preemergence, scale 0 to 100): 0
Foxtail, Giant plant response rating [2, 21]: 60
Plant response rating, Foxtail, Giant [2, 15]: 85
Plant response rating, Foxtail, Giant [2, 16]: 100
Plant response rating, Foxtail, Giant [2, 17]: 100
Plant response rating, Foxtail, Giant [2, 19]: 0
Plant response rating, Foxtail, Giant [2, 20]: 0
Foxtail, Giant plant response rating [2, 22]: 0
Foxtail, Giant plant response rating [2, 23]: 0
Lambsquarters plant response rating ([3]; 8 g ai/ha): 0
Lambsquarters plant response rating ([3]; 16 g ai/ha): 0
Plant response rating, Lambsquarters ([3]; 31 g ai/ha, scale 0 to 100): 0
Plant response rating, Lambsquarters [3, 24]: 0
Blackgrass plant response rating ([4]; postemergence, 0-100 scale): 10
Plant response rating, Blackgrass [4, 15]: 35
Plant response rating, Blackgrass [4, 16]: 35
Plant response rating, Blackgrass [4, 17]: 90
Plant response rating, Blackgrass [4, 18]: 0
Plant response rating, Blackgrass [4, 19]: 40
Plant response rating, Blackgrass [4, 20]: 70
Blackgrass plant response rating ([4]; Preemergence, scale 0 to 100): 0
Goosegrass plant response rating [5, 21]: 60
Goosegrass plant response rating [5, 25]: 70
Plant response rating, Goosegrass [5, 16]: 75
Plant response rating, Goosegrass [5, 17]: 90
Plant response rating, Goosegrass [5, 19]: 0
Plant response rating, Goosegrass [5, 20]: 0
Goosegrass plant response rating [5, 22]: 0
Goosegrass plant response rating [5, 23]: 0
Johnsongrass plant response rating [6, 21]: 60
Johnsongrass plant response rating [6, 25]: 65
Plant response rating, Johnsongrass [6, 16]: 70
Plant response rating, Johnsongrass [6, 17]: 75
Plant response rating, Johnsongrass [6, 19]: 0
Plant response rating, Johnsongrass [6, 20]: 0
Johnsongrass plant response rating [6, 22]: 0
Johnsongrass plant response rating [6, 23]: 0
Nutsedge, Yellow plant response rating [7, 21]: 0
Nutsedge, Yellow plant response rating [7, 25]: 0
Plant response rating, Nutsedge, Yellow [7, 16]: 0
Plant response rating, Nutsedge, Yellow [7, 17]: 0
Plant response rating, Nutsedge, Yellow [7, 19]: 0
Plant response rating, Nutsedge, Yellow [7, 20]: 0
Nutsedge, Yellow plant response rating [7, 22]: 0
Nutsedge, Yellow plant response rating [7, 23]: 0
Plant response rating, Galium [8, 26]: 0
Plant response rating, Galium [8, 27]: 0
Galium plant response rating ([8]; 8 g ai/ha): 0
Galium plant response rating ([8]; 16 g ai/ha): 0
Crabgrass, Large plant response rating [9, 21]: 55
Plant response rating, Crabgrass, Large [9, 15]: 75
Plant response rating, Crabgrass, Large [9, 16]: 98
Plant response rating, Crabgrass, Large [9, 17]: 100
Plant response rating, Crabgrass, Large [9, 19]: 0
Plant response rating, Crabgrass, Large [9, 20]: 0
Crabgrass, Large plant response rating [9, 22]: 0
Crabgrass, Large plant response rating [9, 23]: 0
Wheat plant response rating [10, 21]: 0
Wheat plant response rating [10, 25]: 35
Plant response rating, Wheat [10, 16]: 40
Plant response rating, Wheat [10, 17]: 80
Plant response rating, Wheat [10, 19]: 0
Plant response rating, Wheat [10, 20]: 0
Wheat plant response rating [10, 23]: 0
Oat, Wild plant response rating (wild oat (Avena fatua); [21]): 20
Oat, Wild plant response rating (wild oat (Avena fatua); [25]): 40
Plant response rating, Oat, Wild (wild oat (Avena fatua); [16]): 90
Plant response rating, Oat, Wild (wild oat (Avena fatua); [17]): 90
Plant response rating, Oat, Wild (wild oat (Avena fatua); [19]): 20
Plant response rating, Oat, Wild (wild oat (Avena fatua); [20]): 40
Oat, Wild plant response rating (wild oat (Avena fatua); [22]): 0
Oat, Wild plant response rating (wild oat (Avena fatua); [23]): 0
Ragweed plant response rating [11, 21]: 0
Ragweed plant response rating [11, 25]: 0
Plant response rating, Ragweed [11, 16]: 0
Plant response rating, Ragweed [11, 17]: 0
Plant response rating, Ragweed [11, 19]: 100
Plant response rating, Ragweed [11, 20]: 100
Ragweed plant response rating [11, 22]: 0
Ragweed plant response rating [11, 23]: 98
Plant response rating, Sunflower [12, 26]: 0
Plant response rating, Sunflower [12, 27]: 0
Sunflower plant response rating ([12]; 8 g ai/ha): 0
Sunflower plant response rating ([12]; 16 g ai/ha): 0
Barley plant response rating [13, 21]: 0
Plant response rating, Barley ([13]; 16 g ai/ha): 0
Plant response rating, Barley ([13]; 31 g ai/ha): 0
Plant response rating, Barley ([13]; 62 g ai/ha): 0
Windgrass plant response rating ([14]; 8 g ai/ha): 0
Windgrass plant response rating ([14]; 16 g ai/ha): 0
Plant response rating, Windgrass ([14]; 31 g ai/ha, scale 0 to 100): 10
Plant response rating, Windgrass [14, 24]: 40
